Assay results as given in PubChem BioAssay AID1918938 (Molecular Pharmacology Branch, DTP, NCI, 2023).

Tested on: 556581-035-R-J1-PDC complex spheroid viability
Test: Anticancer human tumor 556581-035-R-J1-PDC patient-derived ovarian carcinoma cell line growth inhibition
Details: for IC50: curve of first compound; for viability, T/C: stronger effect = lower value
Method in brief: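 Complex spheroids of tumor cells with HUVEC and human MSCs, exposed to iadademstat combined with other agents. Each agent tested in half-log steps from near clinical Cmax (else 10 microM top), DMSO ≤0.25%.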

[1] = second compound 0.1 µM, first compound 0.000316 µM
[2] = second compound 0.1 µM, first compound 0.001 µM
[3] = second compound 0.1 µM, first compound 0.00316 µM
[4] = second compound 0.1 µM, first compound 0.01 µM
[5] = second compound 0.1 µM, first compound 0.0316 µM
[6] = second compound 0.1 µM, first compound 0.1 µM
[7] = second compound 0.316 µM, first compound 0.000316 µM
[8] = second compound 0.316 µM, first compound 0.001 µM
[9] = second compound 0.316 µM, first compound 0.00316 µM
[10] = second compound 0.316 µM, first compound 0.01 µM
[11] = second compound 0.316 µM, first compound 0.0316 µM
[12] = second compound 0.316 µM, first compound 0.1 µM
[13] = second compound 1 µM, first compound 0.000316 µM
[14] = second compound 1 µM, first compound 0.001 µM
[15] = second compound 1 µM, first compound 0.00316 µM
[16] = second compound 1 µM, first compound 0.01 µM
[17] = second compound 1 µM, first compound 0.0316 µM
[18] = second compound 1 µM, first compound 0.1 µM
[19] = second compound 3.16 µM, first compound 0.000316 µM
[20] = second compound 3.16 µM, first compound 0.001 µM
[21] = second compound 3.16 µM, first compound 0.00316 µM
[22] = second compound 3.16 µM, first compound 0.01 µM
[23] = second compound 3.16 µM, first compound 0.0316 µM
[24] = second compound 3.16 µM, first compound 0.1 µM
[25] = second compound 10 µM, first compound 0.000316 µM
[26] = second compound 10 µM, first compound 0.001 µM
[27] = second compound 10 µM, first compound 0.00316 µM
[28] = second compound 10 µM, first compound 0.01 µM
[29] = second compound 10 µM, first compound 0.0316 µM
[30] = second compound 10 µM, first compound 0.1 µM
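Further: spheroids exposed to agents for seven days.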
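Wherever viability, T/C is given: 100% = DMSO vehicle control wells.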

Row | SMILES | IC50 (second compound 0.1 µM) [nM] | IC50 (second compound 0.316 µM) [nM] | IC50 (second compound 1 µM) [nM] | IC50 (second compound 3.16 µM) [nM] | IC50 (second compound 10 µM) [nM] | viability, T/C [3] [%] | viability, T/C [4] [%] | viability, T/C [5] [%] | viability, T/C [6] [%] | viability, T/C [9] [%] | viability, T/C [10] [%] | viability, T/C [11] [%] | viability, T/C [12] [%] | viability, T/C [15] [%] | viability, T/C [16] [%] | viability, T/C [17] [%] | viability, T/C [18] [%] | viability, T/C [21] [%] | viability, T/C [22] [%] | viability, T/C [23] [%] | other results
1 | CC(C)CC(NC(=O)C(Cc1ccccc1)NC(=O)c1cnccn1)B(O)O (stereo not given) + NC1CC1c1ccc(-c2cccc(O)c2)cc1 | < 0.316 | < 0.316 | < 0.316 | < 0.316 | < 0.316 | 0.12 | 0.19 | 0.14 | 0.26 | 0.35 | 0.1 | 0.09 | 0.17 | 0.08 | 0.1 | 0.1 | 0.2 | 0.11 | 0.08 | 0.09 | viability, T/C [1]: 1.61%; viability, T/C [2]: 0.66%; viability, T/C [7]: 3.63%; viability, T/C [8]: 0.1%; viability, T/C [13]: 1.67%; viability, T/C [14]: 0.11%; viability, T/C [19]: 1.12%; viability, T/C [20]: 0.11%; viability, T/C [24]: 0.31%; viability, T/C [25]: 1.94%; viability, T/C [26]: 0.27%; viability, T/C [27]: 0.22%; viability, T/C [28]: 5.89%; viability, T/C [29]: 0.35%; viability, T/C [30]: 0.86%
2 | CC(C)CC(NC(=O)CNC(=O)c1cc(Cl)ccc1Cl)B1OC(=O)CC(CC(=O)O)(C(=O)O)O1 (stereo not given) + NC1CC1c1ccc(-c2cccc(O)c2)cc1 | 2.44 | 2.84 | 2.78 | 2.67 | 2.73 | 38.2 | 2.07 | 0.71 | 0.3 | 45.8 | 1.79 | 1.03 | 0.98 | 44.5 | 0.78 | 0.36 | 0.22 | 44.1 | 0.89 | 0.65 | viability, T/C [1]: 85.1%; viability, T/C [2]: 95.6%; viability, T/C [7]: 85.4%; viability, T/C [8]: 96%; viability, T/C [13]: 91%; viability, T/C [14]: 95%; viability, T/C [19]: 82.8%; viability, T/C [20]: 85%; viability, T/C [24]: 0.31%; viability, T/C [25]: 85.4%; viability, T/C [26]: 74.8%; viability, T/C [27]: 47.1%; viability, T/C [28]: 3.21%; viability, T/C [29]: 0.15%; viability, T/C [30]: 1.14%
3 | COc1cc(Nc2ncc3c(n2)-c2ccc(Cl)cc2C(c2c(F)cccc2OC)=NC3)ccc1C(=O)O + NC1CC1c1ccc(-c2cccc(O)c2)cc1 | 42.2 | 27.5 | 50.5 | 440 | > 1000 | 57.3 | 51.5 | 53.3 | 44.6 | 57.6 | 56.5 | 51.2 | 43.1 | 50.5 | 49 | 59.7 | 42.9 | 58.3 | 57.4 | 60.4 | viability, T/C (second compound 0.1 µM, first compound 0.316 µM): 45.7%; viability, T/C (second compound 0.1 µM, first compound 1 µM): 37.3%; viability, T/C (second compound 0.316 µM, first compound 0.316 µM): 37.4%; viability, T/C (second compound 0.316 µM, first compound 1 µM): 37.8%; viability, T/C (second compound 1 µM, first compound 0.316 µM): 46.4%; viability, T/C (second compound 1 µM, first compound 1 µM): 37.9%; viability, T/C [24]: 49.7%; viability, T/C (second compound 3.16 µM, first compound 0.316 µM): 56%; viability, T/C (second compound 3.16 µM, first compound 1 µM): 42.5%; viability, T/C [27]: 73.8%; viability, T/C [28]: 60.5%; viability, T/C [29]: 59.7%; viability, T/C [30]: 55.5%; viability, T/C (second compound 10 µM, first compound 0.316 µM): 52%; viability, T/C (second compound 10 µM, first compound 1 µM): 50.2%
